Source: US20230057984A1, “NORMALIZATION OF CULTURE OF CORNEAL ENDOTHELIAL CELLS” (KYOTO PREFECTURAL PUBLIC UNIVERSITY CORPORATION, priority 2011, published 2023)

Tests used:
[1] = test system: Human corneal endothelial cells; assay: ELISA of type 1 collagen in culture supernatant of HCEC; format: cell-based; conditions: HCEC with vs without SB431542, n=5, P<0.05
Method: Corneal endothelial cells were mechanically exfoliated together with basement membranes from research corneas purchased from the Seattle bank, followed by exfoliating from the basement membranes using collagenase for collection, and then primary culturing. […] The collected human corneal endothelial cells were divided into two, and one group of them was cultured with the base culture medium as a control, and the other group of them was cultured with a base culture medium with SB431542 (TOCRIS, catalog number: 1614) added thereto such that the final concentration would be 1 μmol/L. • Enzyme-linked immunosorbent assay (ELISA): type 1 collagen in a culture supernatant of HCEC was assayed by using a ELISA kits for Collagen Type I Alpha 2 (COL1a2) (Uscn Life Science Inc., Wuhan, China) in accordance with the instruction manual of the manufacturer. Culture supernatants derived from HCEC, cultured together with SB431542 or without SB431542, were used for respective groups (n=5).

[2] = test system: Human corneal endothelial cells; assay: Culture of human corneal endothelial cells with SB431542, cell form (Example 5); format: cell-based; conditions: HCEC, base culture medium with SB431542 1 μmol/L; SB431542-free cells transformed in a fibroblastic manner, multi-layered
Method: • Cynomolgus monkey corneal endothelial cells (MCEC; source of supply and culturing method): the MCECs were cultured by the improved-type protocol described previously [Koizumi N, et al. (2007) Invest Ophthalmol Vis Sci 48: 4519-4526], [Li W, et al. (2007) Invest Ophthalmol Vis Sci 48: 614-620]. Briefly speaking, eyeballs of cynomolgus monkeys, which were humanely killed for another purpose, were purchased (Nissei Bilis Co., Ltd., Ohtsu, Japan and Keari Co., Ltd., Wakayama, Japan) (the method is described above). The Descemet's membrane including corneal endothelial cells were exfoliated, and the corneal endothelial cells were mechanically exfoliated together with basement membranes, followed by treatment using dispase or collagenase (ROCHE catalog number: 10 103 586 001) and then primary culture. Typically, treatment was performed using 1 mg/mL collagenase A (Roche Applied Science, Penzberg, Germany) at 37° C. for 2 hours. For the culture medium, DMEM (INVITROGEN catalog number 12320) was used with 10% FBS (BIOWEST, catalog number: S1820-500) and 2 ng/ml basic FGF (INVITROGEN, catalog number: 13256-029) added thereto. […] In addition, after the cells were fixed, immunostaining was performed using ZO-1, Na^+/K^+-ATPase as a function-associated marker, followed by observation through a fluorescence microscope. […]

SMILES: NC(=O)c1ccc(-c2nc(-c3ccc4c(c3)OCO4)c(-c3ccccn3)[nH]2)cc1 [SB431542]
- secretion of collagen type 1 to the cell supernatant (ELISA) [1]: significantly down-regulated
- cell form [2]: a layer of cells with a small difference in size of a polygonal shape
